In paper PMC3639963, “A New Class of Small Molecule Inhibitor of BMP Signaling” (PLoS ONE, 2013):

Assays:
Experiment in all cases: Nanosyn kinase profiling
Assay type in all cases: biochemical
Details in all cases: read-out: Percentage inhibition; for inhibition at 0.1 µM: 0.1 µM inhibitor; for inhibition at 1 µM: 1 µM inhibitor
AKT2 = target: T1, AKT2 (Homo sapiens, UniProt P31751)
T1 construct: purchased Nanosyn (enzymatic panel); SGC in-house recombinant human kinases (DSF panel); Invitrogen (ALK1-6)
How it was run: (§1)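 Percent inhibition of each kinase was measured with the inhibitor at 0.1 µM and at 1 µM, as part of a 200-kinase human selectivity panel.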

ARK5 = target: T2, ARK5 (Homo sapiens, UniProt O60285)
T2 construct: purchased Nanosyn (enzymatic panel); SGC in-house recombinant human kinases (DSF panel); Invitrogen (ALK1-6)
T2 sequence (O60285 1-661): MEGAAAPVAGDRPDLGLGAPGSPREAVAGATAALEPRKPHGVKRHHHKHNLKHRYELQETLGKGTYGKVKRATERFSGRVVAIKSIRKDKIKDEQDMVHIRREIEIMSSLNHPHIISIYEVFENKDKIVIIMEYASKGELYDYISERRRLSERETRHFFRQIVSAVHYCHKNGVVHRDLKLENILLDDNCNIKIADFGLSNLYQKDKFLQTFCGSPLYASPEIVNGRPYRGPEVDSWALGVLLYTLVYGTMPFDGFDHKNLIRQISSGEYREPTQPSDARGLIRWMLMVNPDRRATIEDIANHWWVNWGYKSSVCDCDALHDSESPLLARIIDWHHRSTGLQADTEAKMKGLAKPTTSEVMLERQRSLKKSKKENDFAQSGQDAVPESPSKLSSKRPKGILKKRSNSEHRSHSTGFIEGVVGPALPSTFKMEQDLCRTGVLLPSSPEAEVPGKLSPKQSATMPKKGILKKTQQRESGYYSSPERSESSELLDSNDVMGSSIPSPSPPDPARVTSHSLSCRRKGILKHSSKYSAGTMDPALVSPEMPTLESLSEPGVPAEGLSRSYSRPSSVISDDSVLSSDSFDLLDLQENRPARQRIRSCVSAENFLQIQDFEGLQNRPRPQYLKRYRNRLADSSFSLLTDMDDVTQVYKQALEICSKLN
How it was run: as §1

BTK = target: T3, BTK (Homo sapiens, UniProt Q06187)
T3 construct: purchased Nanosyn (enzymatic panel); SGC in-house recombinant human kinases (DSF panel); Invitrogen (ALK1-6)
T3 sequence (Q06187 whole entry): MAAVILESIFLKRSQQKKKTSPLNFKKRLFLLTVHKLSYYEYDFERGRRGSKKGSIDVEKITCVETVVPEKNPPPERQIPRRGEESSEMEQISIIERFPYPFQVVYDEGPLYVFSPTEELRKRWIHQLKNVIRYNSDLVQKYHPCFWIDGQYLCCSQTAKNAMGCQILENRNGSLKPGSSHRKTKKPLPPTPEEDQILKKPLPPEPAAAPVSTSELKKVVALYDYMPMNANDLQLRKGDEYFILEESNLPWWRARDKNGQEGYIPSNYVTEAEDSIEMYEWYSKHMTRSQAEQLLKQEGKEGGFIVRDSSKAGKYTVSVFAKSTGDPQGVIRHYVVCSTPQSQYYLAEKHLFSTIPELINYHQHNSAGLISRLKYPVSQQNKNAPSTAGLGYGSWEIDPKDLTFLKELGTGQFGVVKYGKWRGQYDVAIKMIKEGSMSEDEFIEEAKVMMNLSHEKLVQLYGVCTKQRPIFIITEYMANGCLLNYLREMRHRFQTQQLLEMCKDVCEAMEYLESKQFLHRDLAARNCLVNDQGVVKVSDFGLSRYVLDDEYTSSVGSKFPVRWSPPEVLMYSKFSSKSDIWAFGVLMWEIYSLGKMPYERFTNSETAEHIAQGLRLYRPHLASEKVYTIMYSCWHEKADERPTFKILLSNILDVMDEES
How it was run: as §1

CDK5/p35 = target: T4, CDK5/p35 (Homo sapiens, UniProt Q00535)
T4 construct: purchased Nanosyn (enzymatic panel); SGC in-house recombinant human kinases (DSF panel); Invitrogen (ALK1-6)
How it was run: as §1

CK1γ3 = target: T5, CK1γ3 (Homo sapiens, UniProt Q9Y6M4)
T5 construct: purchased Nanosyn (enzymatic panel); SGC in-house recombinant human kinases (DSF panel); Invitrogen (ALK1-6)
How it was run: as §1

CK2 = target: T6, CK2 (Homo sapiens, UniProt P68400)
T6 construct: purchased Nanosyn (enzymatic panel); SGC in-house recombinant human kinases (DSF panel); Invitrogen (ALK1-6)
T6 sequence (P68400 whole entry): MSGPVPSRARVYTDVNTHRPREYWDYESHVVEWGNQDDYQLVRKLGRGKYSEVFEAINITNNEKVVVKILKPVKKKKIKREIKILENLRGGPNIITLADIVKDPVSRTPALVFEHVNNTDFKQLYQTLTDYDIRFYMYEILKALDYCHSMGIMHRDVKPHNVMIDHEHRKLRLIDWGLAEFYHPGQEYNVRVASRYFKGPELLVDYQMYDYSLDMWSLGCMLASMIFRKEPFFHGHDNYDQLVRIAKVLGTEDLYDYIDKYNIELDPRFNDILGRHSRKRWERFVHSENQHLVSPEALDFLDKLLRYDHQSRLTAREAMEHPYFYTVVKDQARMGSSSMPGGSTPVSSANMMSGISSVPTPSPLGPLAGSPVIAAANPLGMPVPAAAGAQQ
T6 sequence (P67870 whole entry partner): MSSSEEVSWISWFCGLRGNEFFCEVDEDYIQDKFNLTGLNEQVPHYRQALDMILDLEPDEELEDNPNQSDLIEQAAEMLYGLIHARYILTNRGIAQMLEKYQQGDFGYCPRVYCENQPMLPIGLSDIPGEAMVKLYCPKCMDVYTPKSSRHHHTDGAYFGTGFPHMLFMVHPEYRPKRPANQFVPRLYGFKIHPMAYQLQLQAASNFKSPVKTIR
How it was run: as §1

FYN = target: T7, FYN (Homo sapiens, UniProt P06241)
T7 construct: purchased Nanosyn (enzymatic panel); SGC in-house recombinant human kinases (DSF panel); Invitrogen (ALK1-6)
T7 sequence (P06241 whole entry): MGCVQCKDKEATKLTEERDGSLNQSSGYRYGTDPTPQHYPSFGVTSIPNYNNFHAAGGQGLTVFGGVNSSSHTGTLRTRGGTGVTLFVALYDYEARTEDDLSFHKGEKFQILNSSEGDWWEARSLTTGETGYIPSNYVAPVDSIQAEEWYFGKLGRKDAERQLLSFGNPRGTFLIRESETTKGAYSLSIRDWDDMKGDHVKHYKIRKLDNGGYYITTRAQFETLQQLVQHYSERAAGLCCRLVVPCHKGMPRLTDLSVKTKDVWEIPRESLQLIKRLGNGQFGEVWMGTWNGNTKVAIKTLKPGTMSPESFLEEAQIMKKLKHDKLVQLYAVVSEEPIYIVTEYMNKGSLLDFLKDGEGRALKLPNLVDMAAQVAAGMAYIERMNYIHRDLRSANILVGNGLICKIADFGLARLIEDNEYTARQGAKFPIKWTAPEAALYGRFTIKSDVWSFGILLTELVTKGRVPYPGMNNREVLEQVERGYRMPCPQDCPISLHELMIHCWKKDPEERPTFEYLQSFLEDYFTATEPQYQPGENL
How it was run: as §1

JNK2 = target: T8, JNK2 (Homo sapiens, UniProt P45984)
T8 construct: purchased Nanosyn (enzymatic panel); SGC in-house recombinant human kinases (DSF panel); Invitrogen (ALK1-6)
T8 sequence (P45984 whole entry): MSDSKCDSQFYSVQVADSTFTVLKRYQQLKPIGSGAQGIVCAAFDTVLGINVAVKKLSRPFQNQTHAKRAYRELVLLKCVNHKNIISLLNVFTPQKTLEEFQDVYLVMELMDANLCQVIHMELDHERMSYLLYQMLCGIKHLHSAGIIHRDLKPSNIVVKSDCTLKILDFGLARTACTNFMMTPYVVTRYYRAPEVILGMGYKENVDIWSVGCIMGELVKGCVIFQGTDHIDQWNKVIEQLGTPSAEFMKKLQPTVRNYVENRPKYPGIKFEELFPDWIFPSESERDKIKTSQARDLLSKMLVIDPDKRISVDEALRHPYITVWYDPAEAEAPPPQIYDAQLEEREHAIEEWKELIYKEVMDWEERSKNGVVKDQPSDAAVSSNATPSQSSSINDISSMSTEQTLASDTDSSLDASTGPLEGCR
How it was run: as §1

MKNK1 = target: T9, MKNK1 (Homo sapiens, UniProt Q9BUB5)
T9 construct: purchased Nanosyn (enzymatic panel); SGC in-house recombinant human kinases (DSF panel); Invitrogen (ALK1-6)
T9 sequence (Q9BUB5 whole entry): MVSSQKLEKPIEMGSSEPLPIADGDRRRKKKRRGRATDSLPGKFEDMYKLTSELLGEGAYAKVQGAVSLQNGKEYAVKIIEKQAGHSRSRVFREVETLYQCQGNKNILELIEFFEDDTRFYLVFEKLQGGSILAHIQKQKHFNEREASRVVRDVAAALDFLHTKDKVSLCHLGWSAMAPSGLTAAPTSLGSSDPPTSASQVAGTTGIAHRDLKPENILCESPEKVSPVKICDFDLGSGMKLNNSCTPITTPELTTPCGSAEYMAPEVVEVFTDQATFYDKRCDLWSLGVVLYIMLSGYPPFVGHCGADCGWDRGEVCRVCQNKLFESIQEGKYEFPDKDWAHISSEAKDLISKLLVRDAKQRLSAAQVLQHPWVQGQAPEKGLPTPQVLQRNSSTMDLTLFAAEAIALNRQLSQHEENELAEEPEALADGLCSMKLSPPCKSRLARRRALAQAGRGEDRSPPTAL
How it was run: as §1

MSK1 = target: T10, MSK1 (Homo sapiens, UniProt O75582)
T10 construct: purchased Nanosyn (enzymatic panel); SGC in-house recombinant human kinases (DSF panel); Invitrogen (ALK1-6)
T10 sequence (O75582 whole entry): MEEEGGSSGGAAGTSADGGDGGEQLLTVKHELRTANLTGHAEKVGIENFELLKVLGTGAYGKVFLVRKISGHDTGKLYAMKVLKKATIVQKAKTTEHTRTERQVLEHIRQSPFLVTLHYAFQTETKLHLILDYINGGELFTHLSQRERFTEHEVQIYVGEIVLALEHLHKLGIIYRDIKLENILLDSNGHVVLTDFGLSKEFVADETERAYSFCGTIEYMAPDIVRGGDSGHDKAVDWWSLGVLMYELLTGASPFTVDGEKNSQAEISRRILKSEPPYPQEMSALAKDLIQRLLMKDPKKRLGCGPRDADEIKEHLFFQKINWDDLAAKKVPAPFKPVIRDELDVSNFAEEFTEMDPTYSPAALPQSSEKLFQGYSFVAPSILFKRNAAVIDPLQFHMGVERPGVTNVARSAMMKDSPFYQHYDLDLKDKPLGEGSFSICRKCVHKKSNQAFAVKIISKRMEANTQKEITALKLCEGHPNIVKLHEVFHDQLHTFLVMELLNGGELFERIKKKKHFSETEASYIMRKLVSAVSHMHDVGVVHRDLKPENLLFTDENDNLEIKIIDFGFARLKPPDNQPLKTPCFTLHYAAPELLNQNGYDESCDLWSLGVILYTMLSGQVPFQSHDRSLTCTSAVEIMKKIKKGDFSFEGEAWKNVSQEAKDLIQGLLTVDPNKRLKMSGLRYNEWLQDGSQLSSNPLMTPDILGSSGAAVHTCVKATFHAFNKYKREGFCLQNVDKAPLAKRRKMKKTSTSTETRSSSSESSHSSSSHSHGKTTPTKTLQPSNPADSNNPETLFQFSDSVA
How it was run: as §1

MST4 = target: T11, MST4 (Homo sapiens, UniProt Q9P289)
T11 construct: purchased Nanosyn (enzymatic panel); SGC in-house recombinant human kinases (DSF panel); Invitrogen (ALK1-6)
How it was run: as §1

PAR1Bα = target: T12, PAR1Bα (Homo sapiens, UniProt Q7KZI7)
T12 construct: purchased Nanosyn (enzymatic panel); SGC in-house recombinant human kinases (DSF panel); Invitrogen (ALK1-6)
How it was run: as §1

PKCβ1 = target: T13, PKCβ1 (Homo sapiens, UniProt P05771)
T13 construct: purchased Nanosyn (enzymatic panel); SGC in-house recombinant human kinases (DSF panel); Invitrogen (ALK1-6)
How it was run: as §1

PLK1 = target: T14, PLK1 (Homo sapiens, UniProt P53350)
T14 construct: purchased Nanosyn (enzymatic panel); SGC in-house recombinant human kinases (DSF panel); Invitrogen (ALK1-6)
T14 sequence (P53350 whole entry): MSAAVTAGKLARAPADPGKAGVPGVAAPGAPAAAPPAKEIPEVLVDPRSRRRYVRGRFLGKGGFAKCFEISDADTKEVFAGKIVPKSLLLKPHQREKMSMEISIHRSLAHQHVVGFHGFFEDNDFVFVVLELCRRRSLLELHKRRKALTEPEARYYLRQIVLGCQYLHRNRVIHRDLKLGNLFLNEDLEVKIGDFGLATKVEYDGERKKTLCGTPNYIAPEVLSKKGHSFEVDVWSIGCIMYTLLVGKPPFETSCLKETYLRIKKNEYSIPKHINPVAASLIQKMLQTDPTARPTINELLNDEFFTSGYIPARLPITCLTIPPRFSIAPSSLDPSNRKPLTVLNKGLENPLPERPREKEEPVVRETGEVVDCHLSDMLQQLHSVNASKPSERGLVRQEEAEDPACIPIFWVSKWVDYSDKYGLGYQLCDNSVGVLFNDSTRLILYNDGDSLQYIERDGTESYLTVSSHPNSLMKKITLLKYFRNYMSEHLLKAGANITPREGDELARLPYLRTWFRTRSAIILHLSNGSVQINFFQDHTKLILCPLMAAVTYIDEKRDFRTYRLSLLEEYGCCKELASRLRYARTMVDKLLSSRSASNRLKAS
How it was run: as §1

PRKG1 = target: T15, PRKG1 (Homo sapiens, UniProt Q13976)
T15 construct: purchased Nanosyn (enzymatic panel); SGC in-house recombinant human kinases (DSF panel); Invitrogen (ALK1-6)
T15 sequence (Q13976 1-671): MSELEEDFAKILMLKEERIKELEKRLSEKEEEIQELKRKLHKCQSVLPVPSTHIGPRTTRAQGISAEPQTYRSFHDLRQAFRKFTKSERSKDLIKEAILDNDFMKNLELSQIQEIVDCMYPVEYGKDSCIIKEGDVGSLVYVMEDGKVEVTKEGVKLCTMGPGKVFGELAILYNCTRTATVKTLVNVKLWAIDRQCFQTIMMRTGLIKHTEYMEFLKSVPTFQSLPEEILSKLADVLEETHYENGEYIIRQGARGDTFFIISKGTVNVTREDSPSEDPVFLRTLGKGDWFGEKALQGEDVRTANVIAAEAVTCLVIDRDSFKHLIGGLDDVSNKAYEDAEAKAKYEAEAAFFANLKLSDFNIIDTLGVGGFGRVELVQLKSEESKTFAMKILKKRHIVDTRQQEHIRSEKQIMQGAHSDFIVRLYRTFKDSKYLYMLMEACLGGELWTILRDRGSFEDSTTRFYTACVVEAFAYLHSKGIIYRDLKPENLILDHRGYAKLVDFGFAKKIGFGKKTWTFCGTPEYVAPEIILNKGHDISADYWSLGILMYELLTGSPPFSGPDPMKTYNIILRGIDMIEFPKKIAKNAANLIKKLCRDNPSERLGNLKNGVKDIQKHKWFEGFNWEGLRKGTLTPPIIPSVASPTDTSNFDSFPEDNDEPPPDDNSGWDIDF
How it was run: as §1

SRPK1 = target: T16, SRPK1 (Homo sapiens, UniProt Q96SB4)
T16 construct: purchased Nanosyn (enzymatic panel); SGC in-house recombinant human kinases (DSF panel); Invitrogen (ALK1-6)
T16 sequence (Q96SB4 whole entry): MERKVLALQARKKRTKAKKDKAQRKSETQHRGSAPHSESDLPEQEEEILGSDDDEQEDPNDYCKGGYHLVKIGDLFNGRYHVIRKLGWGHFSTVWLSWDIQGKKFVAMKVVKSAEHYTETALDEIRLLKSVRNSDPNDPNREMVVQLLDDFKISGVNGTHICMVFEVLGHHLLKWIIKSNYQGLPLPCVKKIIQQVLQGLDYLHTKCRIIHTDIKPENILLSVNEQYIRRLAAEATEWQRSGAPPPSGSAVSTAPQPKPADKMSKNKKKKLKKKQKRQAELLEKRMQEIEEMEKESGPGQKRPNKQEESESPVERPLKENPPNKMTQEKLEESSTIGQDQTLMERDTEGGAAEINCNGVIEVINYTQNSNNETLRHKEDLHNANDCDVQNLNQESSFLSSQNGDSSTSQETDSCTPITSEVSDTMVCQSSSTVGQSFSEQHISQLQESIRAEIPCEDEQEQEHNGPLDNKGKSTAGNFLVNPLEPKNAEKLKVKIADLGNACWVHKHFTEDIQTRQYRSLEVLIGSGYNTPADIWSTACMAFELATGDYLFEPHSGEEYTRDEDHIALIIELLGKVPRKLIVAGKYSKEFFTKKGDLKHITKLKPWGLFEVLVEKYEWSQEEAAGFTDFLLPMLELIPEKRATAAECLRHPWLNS
How it was run: as §1

TIE2 = target: T17, TIE2 (Homo sapiens, UniProt Q02763)
T17 construct: purchased Nanosyn (enzymatic panel); SGC in-house recombinant human kinases (DSF panel); Invitrogen (ALK1-6)
How it was run: as §1

Row | SMILES | inhibition at 0.1 µM (AKT2) | inhibition at 1 µM (AKT2) | inhibition at 0.1 µM (ARK5) | inhibition at 1 µM (ARK5) | inhibition at 0.1 µM (BTK) | inhibition at 1 µM (BTK) | inhibition at 0.1 µM (CDK5/p35) | inhibition at 1 µM (CDK5/p35) | inhibition at 0.1 µM (CK1γ3) | inhibition at 1 µM (CK1γ3) | inhibition at 0.1 µM (CK2) | inhibition at 1 µM (CK2) | inhibition at 0.1 µM (FYN) | inhibition at 1 µM (FYN) | inhibition at 0.1 µM (JNK2) | inhibition at 1 µM (JNK2) | inhibition at 0.1 µM (MKNK1) | inhibition at 1 µM (MKNK1) | inhibition at 0.1 µM (MSK1) | inhibition at 1 µM (MSK1) | further results
1 | COc1cc(-c2cc(-c3cccc(O)c3)cnc2N)cc(OC)c1OC [K02288, 3-[6-amino-5-(3,4,5-trimethoxy-phenyl)-pyridin-3-yl]-phenol] | -2% | -1% | 1.1% | 4.1% | 0.5% | 6.6% | 0.3% | 1.9% | 2.7% | 19% | 6.2% | 2.8% | 10% | 43% | 0.9% | 0% | 0.7% | 1.3% | -2% | -1% | inhibition at 0.1 µM (MST4): 0.4%; inhibition at 1 µM (MST4): 0%; inhibition at 0.1 µM (PAR1Bα): 2.3%; inhibition at 1 µM (PAR1Bα): 7%; inhibition at 0.1 µM (PKCβ1): -1%; inhibition at 1 µM (PKCβ1): 0.7%; inhibition at 0.1 µM (PLK1): -2%; inhibition at 1 µM (PLK1): -2%; inhibition at 0.1 µM (PRKG1): 0.3%; inhibition at 1 µM (PRKG1): 3.3%; inhibition at 0.1 µM (SRPK1): 3.2%; inhibition at 1 µM (SRPK1): 2.7%; inhibition at 0.1 µM (TIE2): 1%; inhibition at 1 µM (TIE2): 3%
2 | c1ccc2c(-c3cnn4cc(-c5ccc(N6CCNCC6)cc5)cnc34)ccnc2c1 [LDN-193189] | 1% | 1.8% | 16% | 56% | 0.5% | 1.8% | 1.4% | 8.5% | 2.3% | 5.5% | 0.7% | 4.2% | 18% | 60% | 3.9% | 1.3% | 7.1% | 37% | 1.1% | 1.3% | inhibition at 0.1 µM (MST4): -1%; inhibition at 1 µM (MST4): -5%; inhibition at 0.1 µM (PAR1Bα): 6.9%; inhibition at 1 µM (PAR1Bα): 43%; inhibition at 0.1 µM (PKCβ1): -2%; inhibition at 1 µM (PKCβ1): 0.2%; inhibition at 0.1 µM (PLK1): 0.8%; inhibition at 1 µM (PLK1): 1.3%; inhibition at 0.1 µM (PRKG1): 1%; inhibition at 1 µM (PRKG1): 1.2%; inhibition at 0.1 µM (SRPK1): -1%; inhibition at 1 µM (SRPK1): -2%; inhibition at 0.1 µM (TIE2): 2%; inhibition at 1 µM (TIE2): 16%
